Results taken from patent US20250155354A1, “METHOD AND DEVICE FOR HIGH THROUGHPUT CELL DEFORMABILITY MEASUREMENTS” (THE REGENTS OF THE UNIVERSITY OF CALIFORNIA, priority 2010, published 2025).

Tested on: cervical carcinoma cells (HeLa)
Assay: Cell deformability measurement of drug-treated HeLa cells in microfluidic extensional flow (cytoskeletal disruption)
Type: cell-based
Method: Still referring to FIG. 4, post-processing (operation 450) is conducted on the data 80 to determine cell size, cell deformation, and cell circularity. The cells 50 passing through the system 10 may either be of a known phenotype or an unknown phenotype as illustrated by operation 400. As part of the post processing operation 450, the size of the cell 50 prior to entering the extensional region 40 is determined. The cell diameter (d) is determined as the average of the minimum cell diameters at […] to horizontal prior to entering the extensional region 40 (approximately four (4) frames prior to entering extension region 40). By taking the size measurements from the vertical axis, noise due to blur attributed to high velocities in the horizontal direction is reduced. As the cell 50 enters the extension region 40 and changes trajectory the deformability and circularity parameters are measured. In the frame where the largest deformation is calculated, the corresponding circularity is recorded as well. The deformability parameter is determined by the ratio a/b of the maximum diameter (a) in the vertical direction at 90°±30° to the minimum diameter (b) in the horizontal direction at 0°±30°. The circularity parameter is calculated by (4πA/L^2) wherein A is the area of the observed cell and L is the perimeter of the cell. […]

Structure (SMILES)	cell deformability (a/b) versus untreated HeLa control (HeLa cells incubated in 2 μM nocodazole for 1 hour prior to deformability assay)	cell deformability (a/b) versus untreated HeLa control (HeLa cells incubated in 0.1 μM Latrunculin A for 4 hours prior to deformability assay)
COC(=O)Nc1nc2ccc(C(=O)c3cccs3)cc2[nH]1 [Nocodazole]	more rigid than untreated cells	
C/C1=C/C(=O)O[C@@H]2C[C@@H](CC[C@H](C)/C=C\C=C\CC1)O[C@@](O)([C@@H]1CSC(=O)N1)C2 [Latrunculin, Latrunculin A]		significantly more deformable
